Key:
Format in all cases: cell-based
A375-PLX-R cells = assay: Cell proliferation, PLX4032-resistant A375-PLX-R cells; details: ERK1/2 inhibitor treatment, FIG. 5H
Protocol: (§1) A375, SK-MEL-5 and SK-MEL-28 cell lines were maintained in DMEM growth medium containing 10% FCS, 2 mM L-glutamine and 1 mM sodium pyruvate. The WM3248 cells were maintained in MCDB153:L15 (4:1) growth medium containing 2% FCS, […] insulin and 1.68 mM CaCl2. To create PLX4032-resistant cells, A375, SK-MEL-5, SK-MEL-28 and WM3248 cells were treated with […] in monolayer culture in growth medium for several weeks. The surviving cells were then expanded and cultured in increasing doses of PLX4032 up to […]. The resulting PLX4032-resistant cells, designated PLX4032-resistant (e.g., A375-PLX-R) were routinely maintained in the presence of […] PLX4032.

[1] = system: SKMELS-PLX-R, SKMEL28-PLX-R and WM3248-PLX-R cells; assay: Cell proliferation, other PLX4032-resistant lines; details: ERK1/2 inhibitor treatment, FIG. 5I
Protocol: as §1
This predicts that the BRAF inhibitors-resistant cells should remain sensitive to ERK1/2 inhibitors. To assess the role of ERK1/2 PLX4032 resistant cells were treated with SCH772984, a specific inhibitor of ERK1/2 (31), and the impact on cell proliferation was monitored.

[2] = system: YAP1, TAZ and TEAD in A375 and A375-PLX-R cells; assay: YAP1/TAZ/TEAD mRNA and protein level after verteporfin, monolayer cells; details: proteasome inhibitor with verteporfin, FIG. 4I
Protocol: Equivalent amounts of protein were electrophoresed on denaturing and reducing 10% polyacrylamide gels and transferred to nitrocellulose membrane. The membrane was blocked by 5% nonfat dry milk for one hour and incubated with 1:1000 primary antibody in 5% nonfat dry milk. Blots were rinsed in TBS-T and then incubated with secondary antibodies (1:5000) for 2 h. Secondary antibody binding was visualized using ECL Prime (Amersham) chemiluminescence detection technology. For immunostaining, cells were harvested, suspended in growth medium, and plated in LAB-TEK II Chamber Slide System. After 24 h, the cells were fixed with 4% paraformaldehyde at room temperature for 15 min, washed three with phosphate-buffered saline, in 0.1% Triton X-100 for 15 min, washed with phosphate-buffered saline, and blocked for 1 h with phosphate-buffered saline containing 7.5% fetal calf serum. Primary antibodies were added, and the slides incubated overnight at 4° C. Cells were then washed three times with phosphate-buffered saline and incubated 1 h with the appropriate Alexa Flour fluorescence probe-conjugated secondary antibody. After additional washing, the cells were stained with DAPI for 10 min prior to imaging.
Total RNA was isolated using Illustra RNAspin mini kit (GE Healthcare), and 1 μg of RNA was used for cDNA synthesis. Gene expression was measured by real time PCR using Light Cycler 480 SYBR Green I Master Mix (04-707 516 001) from Roche Diagnostics (Indianapolis, Ind.). The signals were normalized using cyclophilin A control primers. The gene specific primers used for detection of mRNA levels were as follows: cyclophilin A (forward, 5′-[…] (SEQ ID NO: 3); reverse, 5′-[…] (SEQ ID NO: 4)), TAZ (forward, 5′-GTATCCCAGCCAATC TCG (SEQ ID NO: 5); reverse, 5′-TTCTGAGTGGGGTGGTTC (SEQ ID NO: 6)) and YAP1 (forward, 5′-[…] (SEQ ID NO: 7); reverse, 5′-[…], (SEQ ID NO: 8)) (11).
To understand the mechanism of verteporfin action, monolayer A375 and A375-PLX-R cells were treated with […] verteporfin for 24 h and the impact on YAP1/TAZ mRNA and protein level was monitored. […] The proteasome is known to regulate YAP1/TAZ level (29,30) and so whether the proteasome was responsible for the observed reductions was examined.

Compound	A375-PLX-R cells number (A375-PLX-R cells)	proliferation of PLX4032-resistant cells [1]	reversal of verteporfin-dependent reduction in YAP1, TAZ and TEAD level [2]
O=C(Nc1ccc2[nH]nc(-c3ccncc3)c2c1)[C@@H]1CCN(CC(=O)N2CCN(c3ccc(-c4ncccn4)cc3)CC2)C1 [SCH772984]	time-dependent reduction	reduced	
CC(=O)N[C@@H](CSC(=O)[C@]1([C@@H](O)C(C)C)NC(=O)[C@H](C)[C@@H]1O)C(=O)O [lactacystin]			not reversed

From patent US11246856B2, “Methods of treating resistant cancers” (University of Maryland, Baltimore, priority 2017, dated 2022)
